Measurements taken from patent US20220326229A1, “ASSAY FOR REAL-TIME SIMULTANEOUS RECRUITMENT OF ARRESTIN ISOFORMS TO G PROTEIN-COUPLED RECEPTORS” (Purdue Research Foundation, priority 2021, published 2022).

Legend:
[1] = molecular target: T1, δ opioid receptor (DOR) (Mus musculus, UniProt P32300); assay: ClickArr assay: simultaneous recruitment of Barr1 (508 nm) and Barr2 (620 nm) to DOR in triply transfected HEK293 cells; assay type: cell-based
T1 construct: influenza signal peptide (N); linker […]; expressed in transfected cells; host or cells: HEK293
T1 sequence (P32300 with tags, fused parts or gaps): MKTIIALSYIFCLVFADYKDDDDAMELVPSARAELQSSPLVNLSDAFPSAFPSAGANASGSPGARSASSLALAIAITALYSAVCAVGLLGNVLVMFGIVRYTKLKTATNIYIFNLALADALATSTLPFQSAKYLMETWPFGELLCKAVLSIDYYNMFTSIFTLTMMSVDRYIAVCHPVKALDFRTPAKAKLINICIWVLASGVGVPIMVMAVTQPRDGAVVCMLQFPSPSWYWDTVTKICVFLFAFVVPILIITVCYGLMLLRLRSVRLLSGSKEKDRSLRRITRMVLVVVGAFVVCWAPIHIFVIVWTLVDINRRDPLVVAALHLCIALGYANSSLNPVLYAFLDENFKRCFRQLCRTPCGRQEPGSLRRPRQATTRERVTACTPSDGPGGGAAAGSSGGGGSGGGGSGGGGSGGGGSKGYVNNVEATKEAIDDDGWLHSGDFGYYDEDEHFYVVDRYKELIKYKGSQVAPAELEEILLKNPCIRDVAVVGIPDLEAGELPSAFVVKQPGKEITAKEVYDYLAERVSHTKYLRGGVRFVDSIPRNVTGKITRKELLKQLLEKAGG

[2] = molecular target: T2, dopamine D2 receptor (D2R) (Homo sapiens, UniProt P14416); assay type: cell-based; settings: FIG. 7B; single replicate, pilot experiment
T2 construct: linker […]; expressed in transfected cells; host or cells: HEK293

[3] = molecular target: D2R (Homo sapiens, UniProt P14416); settings: cited from earlier work
[4] = molecular target: T3, 3xHA-AGTR1(2-360)-GSSGGGGSGGGGSGGGGSGGGG-CBGct(395-542) (human); assay: split click beetle luciferase complementation (ClickArr), triply transfected cells, angiotensin II dose-response, single replicate
T3 construct: also called AGTR1-CBGct; angiotensin type 1 receptor
T3 chain: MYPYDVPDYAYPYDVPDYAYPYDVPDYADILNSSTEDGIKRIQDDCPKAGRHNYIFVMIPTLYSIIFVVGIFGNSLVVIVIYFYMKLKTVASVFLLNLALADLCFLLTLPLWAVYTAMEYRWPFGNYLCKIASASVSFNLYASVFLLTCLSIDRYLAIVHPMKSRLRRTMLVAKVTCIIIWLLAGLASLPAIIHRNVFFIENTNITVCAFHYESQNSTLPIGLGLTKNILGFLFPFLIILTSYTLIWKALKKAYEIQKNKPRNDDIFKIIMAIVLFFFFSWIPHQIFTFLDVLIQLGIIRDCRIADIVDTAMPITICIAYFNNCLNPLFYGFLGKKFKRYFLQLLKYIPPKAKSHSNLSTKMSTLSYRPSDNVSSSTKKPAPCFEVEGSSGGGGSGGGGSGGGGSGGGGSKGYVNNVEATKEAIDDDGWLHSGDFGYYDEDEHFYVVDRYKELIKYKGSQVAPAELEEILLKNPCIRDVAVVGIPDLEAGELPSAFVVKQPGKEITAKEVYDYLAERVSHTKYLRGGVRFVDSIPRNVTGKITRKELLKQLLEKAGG

[5] = molecular target: T4, Signal peptide + FLAG tag-KOR-GSSGGGGSGGGGSGGGGSGGGG-CBGct(395-542) (mouse); assay: split click beetle luciferase complementation (ClickArr), triply transfected cells, dynorphin17 dose-response, single replicate
T4 construct: also called kappa opioid receptor-CBGct; kappa opioid receptor
T4 chain: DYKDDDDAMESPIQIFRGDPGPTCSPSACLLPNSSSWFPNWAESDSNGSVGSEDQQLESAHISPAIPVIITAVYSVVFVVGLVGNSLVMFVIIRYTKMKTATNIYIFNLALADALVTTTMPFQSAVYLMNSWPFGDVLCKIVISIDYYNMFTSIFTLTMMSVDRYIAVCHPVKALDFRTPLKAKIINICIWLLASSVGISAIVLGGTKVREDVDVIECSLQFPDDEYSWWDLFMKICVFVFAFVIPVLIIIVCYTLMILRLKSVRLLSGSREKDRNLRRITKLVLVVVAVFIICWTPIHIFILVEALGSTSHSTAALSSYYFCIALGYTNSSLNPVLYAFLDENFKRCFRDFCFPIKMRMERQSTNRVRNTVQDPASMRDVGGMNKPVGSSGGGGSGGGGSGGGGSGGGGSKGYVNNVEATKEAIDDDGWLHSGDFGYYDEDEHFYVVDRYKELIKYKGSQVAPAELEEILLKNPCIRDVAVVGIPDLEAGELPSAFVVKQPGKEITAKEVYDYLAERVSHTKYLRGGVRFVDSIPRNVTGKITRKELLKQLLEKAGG

[6] = molecular target: T5, D2R-GSSGGGGSGGGGSGGGGSGGGG-CBGct(395-542) (human); assay: split click beetle luciferase complementation (ClickArr), triply transfected cells, UNC9994 dose-response, single replicate
T5 construct: also called D2R-CBGct; dopamine D2 receptor
T5 chain: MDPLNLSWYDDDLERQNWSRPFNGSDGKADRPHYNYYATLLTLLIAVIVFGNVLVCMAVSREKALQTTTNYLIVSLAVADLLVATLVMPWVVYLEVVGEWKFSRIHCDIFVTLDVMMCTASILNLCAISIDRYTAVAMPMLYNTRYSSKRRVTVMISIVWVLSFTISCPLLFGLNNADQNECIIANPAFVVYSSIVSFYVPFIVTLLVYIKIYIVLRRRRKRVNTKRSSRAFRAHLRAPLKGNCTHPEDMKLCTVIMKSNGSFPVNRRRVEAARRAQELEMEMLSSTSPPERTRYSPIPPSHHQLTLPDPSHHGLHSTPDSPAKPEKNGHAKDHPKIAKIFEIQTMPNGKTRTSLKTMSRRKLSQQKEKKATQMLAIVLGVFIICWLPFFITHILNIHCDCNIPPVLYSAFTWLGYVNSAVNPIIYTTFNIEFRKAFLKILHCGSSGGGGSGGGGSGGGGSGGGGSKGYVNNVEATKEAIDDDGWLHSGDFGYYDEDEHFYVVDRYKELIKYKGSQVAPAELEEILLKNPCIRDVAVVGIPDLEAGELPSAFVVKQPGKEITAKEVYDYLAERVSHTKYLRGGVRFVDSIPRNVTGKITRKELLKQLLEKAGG

[7] = molecular target: T6, Signal peptide + FLAG tag-DOR-GSSGGGGSGGGGSGGGGSGGGG-CBGct(395-542) (mouse (Mus musculus)); assay: split click beetle luciferase complementation (ClickArr), kinetic read at 508 nm, triply transfected HEK293 cells, 32 µM leu-enkephalin or TAN67
T6 construct: also called optimized DOR construct; DOR-CBGct
T6 chain: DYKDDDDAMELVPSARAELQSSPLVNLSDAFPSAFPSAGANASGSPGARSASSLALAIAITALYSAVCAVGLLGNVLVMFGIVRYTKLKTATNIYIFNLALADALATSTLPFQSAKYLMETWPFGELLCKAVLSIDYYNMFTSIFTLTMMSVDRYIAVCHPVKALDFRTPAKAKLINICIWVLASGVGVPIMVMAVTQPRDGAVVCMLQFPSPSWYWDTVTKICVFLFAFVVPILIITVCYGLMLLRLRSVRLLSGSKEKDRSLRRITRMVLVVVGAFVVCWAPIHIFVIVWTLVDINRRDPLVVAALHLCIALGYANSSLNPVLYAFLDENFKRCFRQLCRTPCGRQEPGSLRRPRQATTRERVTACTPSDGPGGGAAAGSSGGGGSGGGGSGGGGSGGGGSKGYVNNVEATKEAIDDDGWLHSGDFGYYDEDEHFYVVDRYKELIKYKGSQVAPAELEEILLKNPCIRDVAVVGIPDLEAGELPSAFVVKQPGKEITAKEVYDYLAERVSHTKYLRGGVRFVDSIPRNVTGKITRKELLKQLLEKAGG

## Br.Br.CN1CC[C@@]2(c3cccc(O)c3)Cc3nc4ccccc4cc3C[C@@H]2C1 (racemic) [TAN67, (R*,S*)-(±)-2-Methyl-4aa-(3-hydroxyphenyl)-1,2,3,4,4a,5,12,12aa-octahydroquinolino[2,3,3-g]isoquinoline dihydrobromide]
[1]; difference in maximum change in signal between arrestin isoforms, as a percentage of Leu-Enk, n=5-6 biological replicates, FIG. 5C
  Δ% efficacy Barr1-Barr2 compared to Leu-Enk: significant difference in efficacy
[1]; saturating concentration (32 μM), n=6 replicates, FIGS. 6A, 6B
  Kinetics of Barr1 vs Barr2 recruitment (normalized β-arrestin signal over time): Recruitment of Barr1 is much slower than Barr2

## Cl.Clc1cccc(C2CCN(CCCOc3ccc4scnc4c3)CC2)c1Cl [UNC9994, 5-(3-(4-(2,3-dichlorophenyl)piperidin-1-yl)propoxy)benzo[d]thiazole hydrochloride]
[2]
  Potency of β-arrestin curves relative to published value: as potent or more potent than published values
  Response: fold change in dopamine receptor:β-arrestin signal: showed a response
[3]; Allen et al., PNAS 108(45): 18488-18493 (2011), read-out: Published potency value
  EC50: 448 nM
[3]; log10 (M) of 448 nM, Allen et al. 2011
  log10 of published potency value: ~−6.3

B1: CBGnt(1-415)-SGGGGSGGGGSGGGGSGGGGS-Barr1 (other)
chain: MVKREKNVIYGPEPLHPLEDLTAGEMLFRALRKHSHLPQALVDVVGDESLSYKEFFEATVLLAQSLHNCGYKMNDVVSICAENNTRFFIPVIAAWYIGMIVAPVNESYIPDELCKVMGISKPQIVFTTKNILNKVLEVQSRTNFIKRIIILDTVENIHGCESLPNFISRYSDGNIANFKPLHFDPVEQVAAILCSSGTTGLPKGVMQTHQNICVRLIHALDPRVGTQLIPGVTVLVYLPFFHAFGFSITLGYFMVGLRVIMFRRFDQEAFLKAIQDYEVRSVINVPSVILFLSKSPLVDKYDLSSLRELCCGAAPLAKEVAEVAAKRLNLPGIRCGFGLTESTSANIHSLGDEFKSGSLGRVTPLMAAKIADRETGKALGPNQVGELCIKGPMVSKGYVNNVEATKEAIDDDGWLSGGGGSGGGGSGGGGSGGGGSGDKGTRVFKKASPNGKLTVYLGKRDFVDHIDLVDPVDGVVLVDPEYLKERRVYVTLTCAFRYGREDLDVLGLTFRKDLFVANVQSFPPAPEDKKPLTRLQERLIKKLGEHAYPFTFEIPPNLPCSVTLQPGPEDTGKACGVDYEVKAFCAENLEEKIHKRNSVRLVIRKVQYAPERPGPQPTAETTRQFLMSDKPLHLEASLDKEIYYHGEPISVNVHVTNNTNKTVKKIKISVRQYADICLFNTAQYKCPVAMEEADDTVAPSSTFCKVYTLTPFLANNREKRGLALDGKLKHEDTNLASSTLLREGANREILGIIVSYKVKVKLVVSRGGDVAVELPFTLMHPKPKEEPPHREVPENETPVDTNLIELDTNDDDIVFEDFARQRLKGMKDDKEEEEDGTGSPQLNNR
notes: also called optimized Barr1 construct; CBGnt-Barr1
[4]
  binding result: binds
[5]
  binding result: binds
[6]
  binding result: binds
[7]
  binding result: binds
